In patent US20250154145A1, “OXER1 ANTAGONISTS AND USES THEREOF” (Fairhaven Pharmaceuticals Ins., priority 2021, published 2025):

Test system: neutrophils
Assay: Neutrophil calcium flux assay (5-OXO-ETE-stimulated, Indo-1 fluorescence)
Format: cell-based
Conditions: 5-OXO-ETE-stimulated calcium flux
Procedure: After isolation, neutrophils were resuspended in PBS without calcium and Magnesium (PBS −/−) at a concentration of 5×10^6 cells/ml. 2ul of Indo-1 (1 mM) were added per ml of cells. After incubation at 37° C. for 30 minutes, cells were washed twice in PBS −/− and resuspended at 5×10^6 cells/ml in assay buffer (HBSS 1× with calcium and magnesium and […]). In a 96-well Black optical clear bottom plate 100 μL of neutrophil were dispensed to each well. After incubation at 37° C. for 5 minutes, 50 μL of assay buffer or 3× antagonist were added and incubated for 5 min in a Tecan Spark plate reader (Tecan, Morrisville, NC). Baseline was measured for 30 sec (wavelength setup: excitation: 331 nm and emission:410 nm). When baseline is stable, 50p of 5-OXO-ETE at 200 nM (4×) or HBSS was added to appropriate wells. Fluorescence was measured every 5 seconds for 30 cycles. Results are expressed as Net fluorescence (FLU minus Background and injection peak). All data were analyzed using GraphPad Prism version 9 for Windows (GraphPad, San Diego, CA).

| Compound | IC50 (Neutrophil) [nM] | IC50 [nM] |
| --- | --- | --- |
| CC(CC(=O)O)CC(=O)c1c(CCCCOCc2cncc(C#N)c2)n(C)c2ncc(Cl)cc12 (centres unmarked) [Compound I-445] | > 300 |  |
| C[C@H](CC(=O)O)CC(=O)c1c(COCCCCc2cccc(Cl)c2)n(C)c2ccc(Cl)cc12 [Compound I-63] | < 100 |  |
| CC(CNC(=O)c1c(CCCCOCc2cccc(Cl)c2)n(C)c2ncc(C(N)=O)cc12)C(=O)O (centres unmarked) [Compound I-287] | > 300 |  |
| CC(CC(=O)O)CC(=O)c1c(CCCCCOCc2cccc(Cl)c2)[nH]c2ccc(C#N)cc12 (centres unmarked) [Compound I-443] | 100 to 300 |  |
| CC(CC(=O)O)CC(=O)c1c(C2CCN(CCc3cccc(Cl)c3)CC2)n(C)c2ncc(C#N)cc12 (centres unmarked) [Compound I-295] | > 300 |  |
| Cn1c(CCCCOCc2cccc(Cl)c2)c(C(=O)N2CC[C@H](C(=O)O)C2)c2cc(C(F)(F)F)ccc21 [Compound I-187] | 100 to 300 |  |
| CC(CC(=O)O)CC(=O)c1c(CCCCCC(O)c2cccc(C#N)c2)n(C)c2ncc(Cl)cc12 (centres unmarked) [Compound I-286] | < 100 |  |
| C[C@@H](CC(=O)O)CC(=O)c1c(CCCCOCc2cccc(C#N)c2)n(C)c2cnc(Cl)cc12 [Compound I-405] | > 300 |  |
| Cn1ccc(C(=O)N2CC[C@H](C(=O)O)C2)c1CCCCOCc1cccc(Cl)c1 [Compound I-162] | > 300 |  |
| CC(CC(=O)O)CC(=O)c1c(CCCCOCc2cccc(C#N)c2)n(C)c2ncccc12 (centres unmarked) [Compound I-392] | 100 to 300 |  |
| Cn1c(CCCCCCC#CC2CC(F)(F)C2)c(C(=O)N2CC[C@@H](C(=O)O)C2)c2cc(C#N)cnc21 [Compound I-341] | > 300 |  |
| C[C@H](CC(=O)O)CC(=O)c1c(CCCCOCc2ccccc2)n(C)c2ncccc12 [Compound I-101] | > 300 |  |
| COc1cccc(CCCCC#Cc2c(C(=O)CC(C)CC(=O)O)c3cc(C#N)cnc3n2C)c1 (centres unmarked) [Compound I-419] | > 300 |  |
| C[C@H](CC(=O)O)CC(=O)c1c(CCCOCCC#CC2CC(F)(F)C2)n(C)c2ccc(Cl)cc12 [Compound I-325] | < 100 |  |
| C[C@@H](CC(=O)O)CC(=O)c1c(CCCCCCc2cccc(Cl)c2)n(CCO)c2ncc(C#N)cc12 [Compound I-280] | > 300 |  |
| COC(=O)NCCCCCc1c(C(=O)CC(C)CC(=O)O)c2cc(Cl)ccc2n1C (centres unmarked) [Compound I-134] | > 300 |  |
| CC(CC(=O)O)CC(=O)c1c(CCCCOCc2cccc(Cl)c2)n(CCO)c2ncc(Cl)cc12 (centres unmarked) [Compound I-378] | > 300 |  |
| C[C@H](CC(=O)O)CC(=O)c1c(CCOCCNc2cccc(Cl)c2)n(C)c2ccc(Cl)cc12 [Compound I-142] | < 100 |  |
| C[C@H](CC(=O)O)CC(=O)c1c(CCCCOCC2(C(F)(F)F)CC2)n(C)c2ccc(Cl)cc12 [Compound I-74] | > 300 |  |
| Cn1nc(-c2cccc(Cl)c2)c(C(=O)N2CC[C@H](C(=O)O)C2)c1CCCCOCc1cccc(Cl)c1 [Compound I-191] | > 300 |  |
| C[C@H](CC(=O)O)CC(=O)c1c(CCCCCOc2ccccn2)n(C)c2ccc(Cl)cc12 [Compound I-131] | > 300 |  |
| C[C@H](CC(=O)O)CC(=O)c1c(CCCCCCc2cccc(Cl)c2)n(C)c2ccc(OC(F)(F)F)cc12 [Compound I-97] | < 100 |  |

| Compound | IC50 (Neutrophil) [nM] | IC50 [nM] |
| --- | --- | --- |
| C[C@H](CC(=O)O)CC(=O)c1c(CCCCOCc2cccc(Cl)c2)n(C)c2cnccc12 [Compound I-407] | < 100 |  |
| CC(CC(=O)O)CC(=O)c1c(CCCCOCc2ccc(F)cc2)n(C)c2ncc(C#N)cc12 (centres unmarked) [Compound I-297] | < 100 |  |
| Cn1nc(CCCCOCc2cccc(Cl)c2)c(C(=O)N2CC[C@H](C(=O)O)C2)c1-c1cccc(Cl)c1 [Compound I-192] | > 300 |  |
| Cn1c(CCCCCCC#CC2CC(F)(F)C2)c(C(=O)N2CC[C@H](c3noc(=O)[nH]3)C2)c2cc(Br)cnc21 [Compound I-457] | > 300 |  |
| CCCCCCc1cc2ccc(Cl)cc2n1C(=O)C[C@H](C)CC(=O)O [Compound I-12] | > 300 |  |
| C[C@@H](CC(=O)O)CC(=O)c1c(CCCCOCc2cccc(F)c2)n(C)c2ncc(C#N)cc12 [Compound I-294] | > 300 |  |
| Cn1c(CCCCCCc2cccc(Cl)c2)c(C(=O)N2CC[C@H](C(=O)O)C2)c2cc(Cl)ccc21 [Compound I-118] | < 100 |  |
| CC(CC(=O)O)CC(=O)c1c(CCCCOCc2cccc(C#N)c2)n(C)c2cccnc12 (centres unmarked) [Compound I-398] | > 300 |  |
| C[C@H](CC(=O)O)CC(=O)c1c(CCCCOCc2cccc(OC(F)(F)F)c2)n(C)c2ncc(C#N)cc12 [Compound I-389] | < 100 |  |
| C[C@@H](CC(=O)O)CC(=O)c1c(CCCCCCCC#CC2CC(F)(F)C2)n(C)c2ncc(C#N)cc12 [Compound I-336] | > 300 |  |
| CC(CC(=O)NS(C)(=O)=O)CC(=O)c1c(CCCCOCc2ccccc2)n(C)c2ncc(C#N)cc12 (centres unmarked) [Compound I-362] | > 300 |  |
| CC(CC(=O)O)CC(=O)c1c(CCCCCCCC#CC2CC(F)(F)C2)n(C)c2ncc(Cl)cc12 (centres unmarked) [Compound I-334] | > 300 |  |
| C[C@H](CC(=O)O)CC(=O)c1c(CCCCOCc2cccc(OC(F)(F)F)c2)n(C)c2cnccc12 [Compound I-408] | < 100 |  |
| CC(CC(=O)O)CC(=O)c1c(CCOCCNc2cccc(F)c2)n(C)c2ncc(C#N)cc12 (centres unmarked) [Compound I-296] | 100 to 300 |  |
| C[C@H](CC(=O)c1c(CCCCOCc2ccccc2)n(C)c2ncc(C#N)cc12)Cc1nnn[nH]1 (stereo in doubt) [Compound I-360] | > 300 |  |
| Cn1c(CCCCOCc2cccc(Cl)c2)c(C(=O)N2CC[C@H](C(=O)O)C2)c2cc(C#N)cnc21 [Compound I-179] | > 300 |  |
| CC(CC(=O)O)CC(=O)c1c(CCCCCC(O)c2cccc(C#N)c2)n(C)c2ncc(Cl)cc12 (single isomer, unassigned) [Compound I-306] |  | > 300 |
| CC(CC(=O)O)CC(=O)c1c(CCCC(C)OCc2ccccc2)n(C)c2ncc(C#N)cc12 (centres unmarked) [Compound I-435] | 100 to 300 |  |
| Cn1c(CCCCCCC#CC2CC(F)(F)C2)c(C(=O)N2CC[C@H](C(=O)NS(=O)(=O)C(F)(F)F)C2)c2cc(C#N)cnc21 [Compound I-364] | > 300 |  |
| C[C@H](CC(=O)O)CC(=O)c1c(CCCCCCC#CC(C)(C)C)n(C)c2ccc(Cl)cc12 [Compound I-112] | < 100 |  |
| C[C@H](CC(=O)O)CC(=O)c1c(CCCCCNC(=O)C2CC2)n(C)c2ccc(Cl)cc12 [Compound I-127] | > 300 |  |
| Cn1c(CCCCOCc2cccc(Cl)c2)c(C(=O)N2CC[C@H](c3nnn[nH]3)C2)c2cc(C(F)(F)F)cnc21 [Compound I-184] | > 300 |  |

| Compound | IC50 (Neutrophil) [nM] | IC50 [nM] |
| --- | --- | --- |
| CC(CC(=O)O)CC(=O)c1c(CCCCCCc2cccc(Cl)c2)n(C)c2ccc(C(F)(F)F)cc12 (centres unmarked) [Compound I-58] | < 100 |  |
| C[C@H](CC(=O)O)CC(=O)c1c(CCOCCOc2cccc(Cl)c2)n(C)c2ccc(Cl)cc12 [Compound I-64] | 100 to 300 |  |
| C[C@H](CC(=O)O)CC(=O)c1c(CCCCCCCC#CC2CC(F)(F)C2)n(C)c2ncc(C#N)cc12 [Compound I-335] | < 100 |  |
| COC(=O)[C@H]1CCN(C(=O)c2c(CCCCCCC#CC3CC(F)(F)C3)n(C)c3ncc(C#N)cc23)[C@@H]1C [Compound I-351] | > 300 |  |
| CC(CNC(=O)c1c(CCCCOCc2cccc(Cl)c2)n(C)c2ncc(C#N)cc12)C(=O)O (centres unmarked) [Compound I-242] | > 300 |  |
| C[C@H](CC(=O)O)CC(=O)c1c(CCCCCCCC#CC2CC(F)(F)C2)n(C)c2ccc(Cl)cc12 [Compound I-331] | < 100 |  |
| CC(CC(=O)NS(C)(=O)=O)CC(=O)c1c(CCCCOCc2cccc(Cl)c2)n(C)c2ccc(C#N)cc12 (centres unmarked) [Compound I-300] | > 300 |  |
| C[C@H](CC(=O)O)CC(=O)c1c(CCCCOCc2cccc(C#N)c2)n(C)c2nc(F)c(Cl)cc12 [Compound I-418] | < 100 |  |
| C[C@H](CC(=O)O)CC(=O)c1c(CCOCC#Cc2ccc(F)nc2)n(C)c2ncc(Cl)cc12 [Compound I-229] | 100 to 300 |  |
| Cn1cc(-c2ccccc2Cl)c(C(=O)N2CC[C@H](C(=O)O)C2)c1CCCCOCc1cccc(Cl)c1 [Compound I-166] | > 300 |  |
| CC(C)OCCCc1c(C(=O)C[C@H](C)CC(=O)O)c2cc(Cl)ccc2n1C [Compound I-71] | > 300 |  |
| Cn1c(CCCCOCc2cccc(Cl)c2)c(C(=O)N2CC[C@H](C(=O)O)C2)c2cc(Cl)cnc21 [Compound I-175] | > 300 |  |
| CC(CC(=O)O)CC(=O)c1c(CCCCCC(O)c2ccc(F)cc2)n(C)c2ncc(Cl)cc12 (centres unmarked) [Compound I-218] | > 300 |  |
| C[C@H](CC(=O)O)CC(=O)c1c(CCCCO[C@H](C)c2ccccc2)n(C)c2ncc(C#N)cc12 [Compound I-434] | < 100 |  |
| CC(C)[C@H](NC(=O)C[C@@H](C)CC(=O)c1c(CCCCOCc2ccccc2)n(C)c2ncc(C#N)cc12)C(=O)O [Compound I-466] | > 300 |  |
| CC(C)CCCCc1c(C(=O)C[C@H](C)CC(=O)O)c2cc(Cl)ccc2n1C [Compound I-70] | 100 to 300 |  |
| CC(CC(=O)O)CC(=O)c1c(CCOCCNc2cccnc2)n(C)c2ncc(Cl)cc12 (centres unmarked) [Compound I-139] | > 300 |  |
| C[C@@H](CC(=O)O)CC(=O)c1c(CCCCCCC#CC2CC(F)(F)C2)n(C)c2ncc(C#N)cc12 [Compound I-329] | > 300 |  |
| CC(CC(=O)O)CC(=O)c1c(CCOCCNc2ccc(F)cc2)n(C)c2ccc(Cl)cc12 (centres unmarked) [Compound I-220] | > 300 |  |
| C[C@H](OCCCCc1c(C(=O)N2CC[C@H](C(=O)O)[C@H]2C)c2cc(C#N)cnc2n1C)c1ccccc1 [Compound I-454] | > 300 |  |
| C[C@H](CC(=O)O)CC(=O)c1c(CCCCOCC#CC2CC(F)(F)C2)n(C)c2ccc(Cl)cc12 [Compound I-324] | < 100 |  |
